Measurements: patent publication US20100331315A1, “RHODANINES AND RELATED HETEROCYCLES AS KINASE INHIBITORS” (priority 2009, published 2010)
Like-named read-outs stand apart in the source and are kept apart here.

Columns and labels:
MDAMB231 = experiment: Alamar Blue cell proliferation assay, MDAMB231; type: cell-based; conditions: Homo sapiens
Protocol: (§1) A representative cell-proliferation assay protocol using Alamar Blue dye (stored at 4° C., use 20 ul per well) is described hereafter.
(§2) a. Split and trypsinize cells.
(§3) b. Count cells using hemocytometer.
(§4) c. Plate 4,000-5,000 cells per well in 100 μl of medium and seed into a 96-well plate according to the following plate layout. Add cell culture medium only to wells B10 to B12. Wells B1 to B9 have cells but no compound added.
(§5) d. Add 100 μl of 2× drug dilution to each well in a concentration shown in the plate layout above. At the same time, add 100 μl of media into the control wells (wells B10 to B12). Total volume is 200 μl/well.
(§6) e. Incubate four (4) days at 37° C., 5% CO2 in a humidified incubator.
(§7) f. Add 20 μl Alamar Blue reagent to each well.
(§8) g. Incubate for four (4) hours at 37° C., 5% CO2 in a humidified incubator.
(§9) h. Record fluorescence at an excitation wavelength of 544 nm and emission wavelength of 590 nm using a microplate reader.
(§10) In the assays, cells are cultured with a test compound for approximately four days, the dye is then added to the cells and fluorescence of […] dye is detected after approximately four hours. Different types of cells can be utilized in the assays (e.g., HCT-116 human colorectal carcinoma cells, PC-3 human prostatic cancer cells and MiaPaca human pancreatic carcinoma cells).

recombinant human PIM2 = recombinant human PIM2 (Homo sapiens, UniProt Q9P1W9); experiment: PIM-2 assay (33P-ATP filter plate); type: biochemical
Protocol: PIM-2 Assay Method: Test compounds dissolved and diluted in DMSO (2 μl) were added to a reaction mixture comprising 10 μl of 5× Reaction Buffer (40 mM MOPS pH 7.0, 5 mM EDTA), 10 μl of recombinant human PIM2 solution (4 ng PIM-2 dissolved in dilution buffer (20 mM MOPS pH 7.0; EDTA 1 mM; 5% Glycerol; 0.01% Brij 35; […]; […] 2-mercaptoethanol; 1 mg/ml BSA)) and 8 ul of water. Reactions were initiated by the addition of 10 ul of ATP Solution (49% (15 mM MgCl2; 75 uM ATP) 1% ([γ-^33P]ATP: Stock 1 mCi/1000; 3000Ci/mmol (Perkin Elmer)) and 10 ul of substrate peptide solution (RSRSSYPAGT, dissolved in water at a concentration of 1 mM), Reactions were maintained for 10 min at 30° C. The reactions were quenched with 100 ul of 0.75% Phosphoric acid, then transferred to and filtered through a Phosphocellulose filter plate (Millipore, MSPH-N6B-50). After washing each well 4 times with 0.75% Phosphoric acid, scintillation fluid (20 uL) was added to each well and the residual radioactivity was measured using a Wallac luminescence counter.

recombinant human CK2 = target: T1, recombinant human CK2 (Homo sapiens, UniProt P68400); experiment: CK2 assay (cell-free, 33P-ATP filter plate); type: biochemical
T1 construct: purchased Upstate
Protocol: Modulatory activity of compounds described herein was assessed in vitro in cell-free CK2 assays by the following method.
Test compounds in aqueous solution were added at a volume of 10 microliters, to a reaction mixture comprising 10 microliters Assay Dilution Buffer (ADB; 20 mM MOPS, pH 7.2, 25 mM beta-glycerolphosphate, 5 mM EGTA, 1 mM sodium orthovanadate and 1 mM dithiothreitol), 10 microliters of substrate peptide (RRRDDDSDDD, dissolved in ADB at a concentration of 1 mM), 10 microliters of recombinant human CK2 (25 ng dissolved in ADB; Upstate). Reactions were initiated by the addition of 10 microliters of ATP Solution (90% 75 mM MgCl2, 75 micromolar ATP dissolved in ADB; 10% [γ-^33P]ATP (stock 1 mCi/100 μl; 3000 Ci/mmol (Perkin Elmer) and maintained for 10 minutes at 30 degrees C. The reactions were quenched with 100 microliters of 0.75% phosphoric acid, then transferred to and filtered through a phosphocellulose filter plate (Millipore). After washing each well 5 times with 0.75% phosphoric acid, the plate was dried under vacuum for 5 min and, following the addition of 15 ul of scintillation fluid to each well, the residual radioactivity was measured using a Wallac luminescence counter.

K-562 = experiment: Alamar Blue cell proliferation assay, K-562; type: cell-based; conditions: Homo sapiens
Protocol: as §1, §2, §3, §4, §5, §6, §7, §8, §9, §10

[1] = test system: MiaPaca human pancreatic carcinoma cells; experiment: Alamar Blue cell proliferation assay, MiaPaCa; type: cell-based
Protocol: as §1, §2, §3, §4, §5, §6, §7, §8, §9, §10

recombinant PIM-1 = recombinant PIM-1 (Homo sapiens, UniProt P11309); experiment: PIM-1 assay (33P-ATP filter plate); type: biochemical; conditions: read-out: PIM1: IC50
Protocol: The following procedure was used to assay the PIM-1 kinase activity of compounds of the invention. Other methods for assaying PIM-1 and other PIM kinases, as well as methods to assay for activity against the various kinases are known in the art.
In a final reaction volume of 50 ul, recombinant PIM-1 (1 ng) was incubated with 12 mM MOPS pH 7.0, 0.4 mM EDTA, glycerol 1%, brij 35 0.002%, 2-mercaptoethanol 0.02%, BSA 0.2 mg/ml, 100 uM KKRNRTLTK, 10 mM MgAcetate, 15 uM ATP, [γ-^33P-ATP] (specific activity approx. 500 cpm/pmol), DMSO 4% and test inhibitor compound at the required concentration. The reaction was initiated by the addition of the Magnesium ATP mixture. After 40 min incubation at 23° C., the reactions were quenched by the addition of 100 ul 0.75% Phosphoric acid, and the labeled peptide collected by filtration through a phosphocellulose filter plate. The plate was washed 4 times with 0.075% phosphoric acid (100 ul per well) and then, after the addition of scintillation fluid (20 ul per well), the counts were measured by a scintillation counter.

MV-4-11 = experiment: Alamar Blue cell proliferation assay, MV-4-11; type: cell-based; conditions: Homo sapiens
Protocol: as §1, §2, §3, §4, §5, §6, §7, §8, §9, §10

[2] = test system: PC-3 human prostatic cancer cells; experiment: Alamar Blue cell proliferation assay, PC3; type: cell-based
Protocol: as §1, §2, §3, §4, §5, §6, §7, §8, §9, §10

[3] = MDA-MB-231, MDAMB231, Table 1, read-out: AB: MDAMB231 IC50
[4] = K562, K-562, Table 1, read-out: AB: K-562 IC50
[5] = MIA PaCa-2, Table 1, read-out: AB: MiaPaCa IC50
[6] = MV4-11, MV-4-11, Table 1, read-out: AB: MV-4-11 IC50
[7] = PC-3, PC3, Table 1, read-out: AB: PC3
[8] = MDA-MB-231, MDAMB231, Table 2, read-out: AB: MDAMB231 IC50
[9] = K562, K-562, Table 2, read-out: AB: K-562 IC50
[10] = MIA PaCa-2, Table 2, read-out: AB: MiaPaCa IC50
[11] = MV4-11, MV-4-11, Table 2, read-out: AB: MV-4-11 IC50
[12] = PC3, Table 2, read-out: AB: PC3 IC50

recombinant human PIM2, sequence (Q9P1W9 whole entry): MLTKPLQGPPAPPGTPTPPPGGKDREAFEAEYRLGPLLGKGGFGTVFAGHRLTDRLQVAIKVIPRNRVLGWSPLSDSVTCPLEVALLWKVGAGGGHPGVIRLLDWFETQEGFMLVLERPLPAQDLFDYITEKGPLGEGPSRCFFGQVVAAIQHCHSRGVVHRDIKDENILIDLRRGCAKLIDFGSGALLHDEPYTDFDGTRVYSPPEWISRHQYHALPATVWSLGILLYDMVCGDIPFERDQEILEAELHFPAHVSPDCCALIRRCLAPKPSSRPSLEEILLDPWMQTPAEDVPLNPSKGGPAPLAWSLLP
recombinant PIM-1, sequence (P11309 whole entry): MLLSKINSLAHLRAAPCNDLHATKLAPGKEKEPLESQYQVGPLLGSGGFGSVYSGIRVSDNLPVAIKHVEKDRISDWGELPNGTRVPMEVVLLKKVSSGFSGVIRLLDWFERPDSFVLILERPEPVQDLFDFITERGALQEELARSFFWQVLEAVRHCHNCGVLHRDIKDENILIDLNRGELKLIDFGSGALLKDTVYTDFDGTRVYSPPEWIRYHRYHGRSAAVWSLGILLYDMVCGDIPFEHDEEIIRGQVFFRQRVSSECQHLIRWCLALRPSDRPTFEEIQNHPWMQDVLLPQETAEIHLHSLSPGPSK
T1 sequence (P68400 whole entry): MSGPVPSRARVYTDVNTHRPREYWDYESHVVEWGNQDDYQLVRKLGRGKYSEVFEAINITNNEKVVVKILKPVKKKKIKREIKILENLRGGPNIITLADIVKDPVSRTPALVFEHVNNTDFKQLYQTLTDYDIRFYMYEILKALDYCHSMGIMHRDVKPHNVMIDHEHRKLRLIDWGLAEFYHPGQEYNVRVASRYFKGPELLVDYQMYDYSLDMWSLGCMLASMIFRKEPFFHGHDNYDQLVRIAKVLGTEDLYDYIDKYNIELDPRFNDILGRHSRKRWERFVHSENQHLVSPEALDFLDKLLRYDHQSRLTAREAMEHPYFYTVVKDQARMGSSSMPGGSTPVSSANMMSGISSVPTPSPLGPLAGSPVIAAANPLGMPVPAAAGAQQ
T1 sequence (P67870 whole entry partner): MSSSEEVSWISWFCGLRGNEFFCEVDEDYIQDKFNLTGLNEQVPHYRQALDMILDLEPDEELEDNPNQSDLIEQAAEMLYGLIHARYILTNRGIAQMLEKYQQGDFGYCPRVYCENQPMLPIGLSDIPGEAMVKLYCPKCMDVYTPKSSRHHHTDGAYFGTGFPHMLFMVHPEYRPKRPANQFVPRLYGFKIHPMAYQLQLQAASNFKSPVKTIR

| Compound | IC50 (MDAMB231; [3]) [µM] | IC50 (recombinant human CK2; Table 1) [µM] | IC50 (K-562; [4]) [µM] | IC50 [1, 5] [µM] | IC50 (recombinant PIM-1; Table 1) [µM] | IC50 (MV-4-11; [6]) [µM] | IC50 [2, 7] [µM] | further results |
| --- | --- | --- | --- | --- | --- | --- | --- | --- |
| CN1CCCN(C(=O)c2cccc(-c3ccc(/C=C4\SC(=S)NC4=O)o3)c2)CC1 | > 10 | 0.047 | 2.89 | 2.29 | 0.005 | 0.406 | > 30 | IC50 (recombinant human PIM2; Table 1): 0.013 µM |
| COc1ccc(/C=C2\SC(=O)NC2=O)cc1-c1cncc(N2CCCNCC2)n1 | – | – | – | – | – | – | – | inhibition at 2.5 µM (recombinant human PIM2; @ 2.5 uM, Table 6, read-out: PIM2: % inh @ 2.5 uM): 98.5%; IC50 (recombinant human CK2; Table 6): 0.472 µM |
| CN1CCCN(c2cncc(-c3cccc(/C=C4\SC(=O)N(C)C4=O)c3)n2)CC1 | – | – | – | – | – | – | – | IC50 (recombinant human PIM2; Table 5): 2.35 µM; IC50 (recombinant human CK2; Table 5): > 5 µM; IC50 (recombinant PIM-1; Table 5): 0.44 µM |
| CN1CCCN(c2cncc(-c3ccc(/C=C4\SC(=S)NC4=O)c(F)c3)n2)CC1 | – | – | – | – | – | – | – | IC50 (recombinant human PIM2; Table 5): 0.19 µM; IC50 (recombinant human CK2; Table 5): 0.32 µM; IC50 (recombinant PIM-1; Table 5): 0.05 µM |
| O=C1NC(=S)S/C1=C\c1ccc(-c2cccc(C(=O)NCCN3CCCC3)c2)o1 | > 10 | – | > 10 | > 10 | 0.074 | > 10 | > 30 | IC50 (recombinant human PIM2; Table 1): 0.704 µM |
| CN1CCCN(C(=O)c2cccc(-c3ccc(/C=C4/SC(=O)NC4=O)o3)c2)CC1 | – | – | – | – | – | – | – | IC50 (MDAMB231; [8]): > 10 µM; IC50 (recombinant human CK2; Table 2): 0.011 µM; IC50 (K-562; [9]): > 10 µM; IC50 [1, 10]: > 10 µM; IC50 (recombinant PIM-1; Table 2): 0.111 µM; IC50 (MV-4-11; [11]): > 1 µM; IC50 [2, 12]: > 30 µM |
| NCCN1CCN(C(=O)c2ccc(-c3ccc(/C=C4\SC(=S)NC4=O)o3)cc2)CC1 | > 10 | 0.196 | > 10 | > 10 | 0.019 | > 1 | > 30 | – |
| NC(=O)c1cccc(-c2ccc(/C=C3\SC(=S)NC3=O)o2)c1 | > 10 | 0.004 | > 10 | > 10 | 0.004 | > 10 | > 10 | – |
| O=C1NC(=O)/C(=C\c2ccc(-c3ccc(C(=O)O)cc3)o2)S1 | – | – | – | – | – | – | – | IC50 (MDAMB231; [8]): > 10 µM; IC50 (recombinant human CK2; Table 2): 0.009 µM; IC50 (K-562; [9]): > 10 µM; IC50 [1, 10]: > 10 µM; IC50 (recombinant PIM-1; Table 2): 0.041 µM; IC50 (MV-4-11; [11]): > 1 µM; IC50 [2, 12]: > 30 µM |
| CN1CCCN(C(=O)c2ccc(-c3ccc(/C=C4/SC(=O)NC4=O)o3)cc2)CC1 | – | – | – | – | – | – | – | IC50 (MDAMB231; [8]): > 10 µM; IC50 (recombinant human CK2; Table 2): 0.43 µM; IC50 (K-562; [9]): > 10 µM; IC50 [1, 10]: > 10 µM; IC50 (recombinant PIM-1; Table 2): 0.266 µM; IC50 (MV-4-11; [11]): > 1 µM; IC50 [2, 12]: > 30 µM |
| Cc1nccn1CCNC(=O)c1ccc(-c2ccc(/C=C3\SC(=S)NC3=O)o2)cc1 | > 10 | 0.226 | > 10 | > 10 | 0.014 | > 10 | > 30 | – |
| CN1CCCN(c2cncc(-c3ccc(/C=C4/SC(=O)NC4=O)c(F)c3)n2)CC1 | – | – | – | – | – | – | – | IC50 (recombinant human PIM2; Table 5): > 2.5 µM; IC50 (recombinant human CK2; Table 5): > 5 µM; IC50 (recombinant PIM-1; Table 5): 1.18 µM |
| O=C1NC(=S)S/C1=C\c1ccc(-c2cc(C(=O)O)ccc2Cl)o1 | > 10 | 0.027 | > 10 | > 10 | 0.199 | > 10 | > 30 | – |
| COc1cc(OC)cc(C(=O)N2CCCN(c3cncc(-c4cc(/C=C5/SC(=O)NC5=O)ccc4F)n3)CC2)c1 | – | – | – | – | – | – | – | IC50 (recombinant human PIM2; Table 5): 0.175 µM; IC50 (recombinant human CK2; Table 5): 0.181 µM |
| O=C1NC(=S)S/C1=C\c1ccc(-c2ccccc2)o1 | > 10 | 0.004 | > 10 | > 10 | 0.059 | > 10 | > 10 | – |
| Cn1cncc1CNC(=O)c1ccc(-c2ccc(/C=C3\SC(=S)NC3=O)o2)cc1 | > 10 | 0.108 | > 10 | > 10 | 0.035 | > 10 | > 30 | – |
| O=C1NC(=S)S/C1=C\c1ccc(-c2cccc(C(=O)NNc3ccnc4cc(Cl)ccc34)c2)o1 | > 10 | 0.266 | > 10 | > 10 | 0.146 | > 10 | > 30 | – |
